≈ marks a conversion by molar mass, not a printed value.
What was measured:
6C3HED lymphosarcoma = assay: In vivo antitumor activity in C3H mice bearing 6C3HED lymphosarcoma allograft (Gardner lymphosarcoma), oral
From the text: A second tumor model employed C3H mice bearing the widely used allograft 6C3HED lymphosarcoma, also known as the Gardner lymphosarcoma (GLS). The 6C3HED lymphosarcoma was obtained from the Division of Cancer Treatment, National Cancer Institute, Tumor Bank, maintained at E. G. and G. Mason Research (Worcester, Mass.).
First passage tumors were stored in liquid nitrogen, using standard techniques. The transplanted tumor was reestablished from the Tumor Bank every six months or as needed. The tumor was maintained by serial passage twice weekly in the host mice.
In the procedures utilized here, the tumor was removed from passage animals and minced into 1- to 3-mm cubic fragments using sterile techniques. Tumor pieces were checked for sterility using both Antibiotic Medium 1 and Brain Heart Infusion (Difco, Detroit, Mich.). The xenograft tumor pieces were implanted into the recipient CD1 Nu/Nu mice subcutaneously in an axillary site by trochar. The allograft 6C3HED tumor pieces were implanted into the recipient C3H mice in an analogous fashion.
Drug therapy on the appropriate schedule was initiated seven days after tumor implantation for the HXGC3 xenograft and the day after tumor implantation for the 6C3HED allograft. The compound being tested was mixed with 2.5% Emulphor EL620 from GAF Corporation (1:40 dilution in 0.9% saline). The total dosage volume for each administration was 0.5 ml. All animals were weighed at the beginning and end of administration of the subject compounds. Food and water were provided ad libitum.
Each control group and each dosage level of the treated groups consisted of 9 or 10 mice selected at random from the pool of implanted animals. The formulations were administered orally by gavage with the use of an 18-gauge needle. Compounds were dosed daily for 10 days for the studies using the human tumor xenografts and 8 days for the studies using the allograft.
The xenograft tumor was measured five days after treatment ended with two dimensional measurements (width and length) of the tumor taken using digital electronic calipers interfaced to a microcomputer. J. F. Worzalla, et al., Investigational New Drugs, 8:241-251 (1990). The allograft was measured in a like manner the day after the dosing schedule ended. Tumor weights were calculated from these measurements using the following formula: [formula]
At least one control group of an equal number of mice was treated with the same volume of 2.5% Emulphor only. The percent inhibition is determined by subtracting the ratio of the mean tumor size of the test group relative to the control group from one and multiplying the result by 100.
The results of several experiments in mice bearing the HXGC3 human colon adenocarcinoma and the 6C3HED lymphosarcoma when the Formula I compounds were administered orally are provided in Table II. In the table, Column 1 refers to the example number of the compound tested; Column 2 describes the particular human tumor xenograft or mouse allograft being studied; Column 3 gives the dosage level of the compound of Formula I in milligrams per kilogram of body weight; Column 4 describes the percent inhibition of tumor growth; and Column 5 tallies the number of mice which died during the course of the experiment relative to the total number of animals in the group.

CCRF-CEM cells = assay: In vitro growth inhibition / cytotoxicity against CCRF-CEM human leukemia cells; assay type: cell-based; conditions: 72 hours of incubation, read-out: IC50 (concentration required for 50% inhibition of growth)
Description: The in vitro data were obtained using CCRF-CEM cells, a human leukemia cell line. Foley et al., Cancer, 18:522 (1965). These cells were grown using standard techniques. See, e.g., G. B. Grindey, et al., Journal of Molecular Pharmacoloy, 16:601 (1979). Dose-response curves were generated for various compounds to determine the concentration required for 50% inhibition of growth (IC50). Cluster plates were prepared in duplicate with the compound at various concentrations. Test compounds were dissolved initially in DMSO at a concentration of 4 mg/ml and further diluted with solvent to the desired concentration. Cells in Roswell Park Memorial Institute 1640 media supplemented with 10% dialyzed fetal bovine serum, and 25 mM HEPES buffer were added to the well at a final concentration of 4.8×10^4 cells/well in a total volume of 2.0 ml. After 72 hours of incubation (95% air, 5% CO2), cell numbers were determined on a ZBI Coulter counter. Cell number for indicated controls at the end of incubation was usually (4-6)×10^5 cells/well. Cell viability was also measured by staining with 3-[4,5-dimethylthiazol-2-yl]-2,5-diphenyl-tetrazolium bromide (MTT) using standard techniques. R. I. Freshney, Culture of Animal Cells: A Manual of Basic Technique, 253-254 (2d ed. 1987).
Column 1 refers to the example number of the compound tested; Column 2 depicts the in vitro cytoxicity against CCRF-CEM cells by relating the concentration of the test compound required for 50% inhibition of growth (IC50) of the cells in the well.

[1] = tested on: HXGC3 human colon adenocarcinoma xenograft; assay: In vivo antitumor activity in CD1 Nu/Nu mice bearing HXGC3 human colon adenocarcinoma xenograft, oral; conditions: daily for 10 days
Description: One of the tumor models used for showing the anti-neoplastic activity of the sulfonylureas of this invention was the human colon xenograft HXGC3. […] This tumor was obtained from St. Jude's Children's Research Hospital and has been widely used as a human tumor model.
The xenograft tumor was measured five days after treatment ended with two dimensional measurements (width and length) of the tumor taken using digital electronic calipers interfaced to a microcomputer. […] Tumor weights were calculated from these measurements using the following formula: [formula]

[2] = 6C3HED, 1200 mg/kg, oral, daily for 8 days, second entry of Example 1

C=Cc1ccc(S(=O)(=O)NC(=O)Nc2ccc(Cl)cc2)cc1 [Example 1, N-[[(4-chlorophenyl)amino]carbonyl]-4-(ethenyl)benzenesulfonamide] was tested, and the “Toxic/Total (mice which died / total in group)” value (6C3HED lymphosarcoma; 6C3HED, 37.5 mg/kg, oral, daily for 8 days, second entry of Example 1) was 0/10, the “Toxic/Total (mice which died / total in group)” value (6C3HED lymphosarcoma; 6C3HED, 75 mg/kg, oral, daily for 8 days, second entry of Example 1) was 0/10 and the “Toxic/Total (mice which died / total in group)” value (6C3HED lymphosarcoma; 6C3HED, 150 mg/kg, oral, daily for 8 days, first entry of Example 1) was 0/10. The “Toxic/Total (mice which died / total in group)” value (6C3HED lymphosarcoma; 6C3HED, 150 mg/kg, oral, daily for 8 days, second entry of Example 1) was 0/10, the “Toxic/Total (mice which died / total in group)” value (6C3HED lymphosarcoma; 6C3HED, 300 mg/kg, oral, daily for 8 days, first entry of Example 1) was 1/10 and the “Toxic/Total (mice which died / total in group)” value (6C3HED lymphosarcoma; 6C3HED, 300 mg/kg, oral, daily for 8 days, second entry of Example 1) was 1/10. The “Toxic/Total (mice which died / total in group)” value (6C3HED lymphosarcoma; 6C3HED, 600 mg/kg, oral, daily for 8 days, second entry of Example 1) was 2/10, the “Percent Inhibition of tumor growth” value (6C3HED lymphosarcoma; [2]) was “Toxic” and the “Toxic/Total (mice which died / total in group)” value (6C3HED lymphosarcoma; [2]) was 10/10. The “Percent Inhibition of tumor growth” value (6C3HED lymphosarcoma; po, 37.5 mg/kg, 192 h) was 34%, the “Percent Inhibition of tumor growth” value (6C3HED lymphosarcoma; po, 75 mg/kg, 192 h) was 66% and the “Percent Inhibition of tumor growth” value (6C3HED lymphosarcoma; po, 600 mg/kg, 192 h) was 100%. For the same compound, the IC50 (CCRF-CEM cells) was 19.8 µg/mL (≈ 58.8 µM).
With C=Cc1ccc(S(=O)(=O)NC(=O)Nc2ccc(Cl)c(Cl)c2)cc1 [Example 2, N-[[(3,4-dichlorophenyl)amino]carbonyl]-4-(ethenyl)benzenesulfonamide] the IC50 (CCRF-CEM cells) was 9.3 µg/mL (≈ 25.1 µM), the “Percent Inhibition of tumor growth” value ([1]; 150 mg/kg) was 93% and the “Toxic/Total (mice which died / total in group)” value ([1]; 150 mg/kg) was 0/7. The “Percent Inhibition of tumor growth” value ([1]; 300 mg/kg) was 97% and the “Toxic/Total (mice which died / total in group)” value ([1]; 300 mg/kg) was 1/7.
In the case of C=Cc1cccc(S(=O)(=O)NC(=O)Nc2ccc(Cl)cc2)c1 [Example 3, N-[[(4-chlorophenyl)amino]carbonyl]-3-(ethenyl)benzenesulfonamide], the “Toxic/Total (mice which died / total in group)” value (6C3HED lymphosarcoma; 6C3HED, 150 mg/kg, oral, daily for 8 days, entry of Example 3) is reported as 0/10, the “Toxic/Total (mice which died / total in group)” value (6C3HED lymphosarcoma; 6C3HED, 300 mg/kg, oral, daily for 8 days, entry of Example 3) is reported as 0/10 and the “Percent Inhibition of tumor growth” value (6C3HED lymphosarcoma; po, 150 mg/kg, 192 h) is reported as 60%. For the same compound, the “Percent Inhibition of tumor growth” value (6C3HED lymphosarcoma; po, 300 mg/kg, 192 h) was 83% and the IC50 (CCRF-CEM cells) was 14.4 µg/mL (≈ 42.8 µM).

Reference: US6174921A, “Antitumor compositions and methods of treatment” (priority 1999, dated 2001)
